Where two headings read alike, the source gives them in different places.
Experiments:
[1] = target: ER (endogenous, MCF7 cells) (Homo sapiens (Human), UniProt P03372); assay: ER transcription assay (MCF7 cells), ERE-luciferase reporter; format: cell-based
Source text: ER Transcription Assay (MCF7 Cells)
The ER transcription assay is a reporter assay that is based on the ability of ER to induce transcription from a luciferase reporter gene containing estrogen response elements (EREs) in the promoter/enhancer region. When the reporter gene is transfected in MCF7 cells (containing endogenous ER), transcription is reflected by the level of luciferase expression.
A day before transfection, cells are split into a T75 flask at a cell density of 300,000 cells/mL (10 mL total) and allowed to attach overnight in a humidified CO2 incubator at 37° C.
Approximately 20 ug DNA is mixed in OptiMEM (Invitrogen) to a total volume of 650 μL. Following incubation, the OptiMEM-DNA mixture is added to the OptiMEM-Lipofectin mix and incubated for 15 minutes at 37° C. The DNA-Lipofectin mixture is then added directly to the T75 flask and the flask is returned to the incubator.
Normally, DMSO (used as a vehicle) is included to achieve a final concentration of 0.1% when added to the cells. Transfected cells are trypsinized, resuspended in DMEM/F12/10% charcoal-stripped serum and added to the 96-well plate at 25,000 cells/well in 90 μL of media. The plate is then returned to the incubator for 24 hours.
After incubation with compounds for 24 hours, Firefly and Renilla luciferase activities are measured to determine ER transcriptional activity. Media is removed from 96-well plates by decanting and blotting on paper towels.
One second total read time after a one second delay.
One second total read time after one second delay. If Firefly luciferase signal is high, Renilla assay must be done an hour after the Firefly assay due to incomplete squelching of Firefly signal.
(§1) The column titled MCF7 IC50 reports the inflection point of the inhibition of transcription in MCF7 cells as described above. Percentage ERα remaining reports the remaining ERα protein measured at 10 μM concentration of the ligand as described above. The column ERα IC50 reports the inflection point of the degradation in response to the ligand concentration.

ERα = ERα (Homo sapiens (Human), UniProt P03372); assay: ERα degradation (MCF7 cells), in-cell Western; format: cell-based; conditions: for IC50: inflection point of the degradation in response to ligand concentration; for IC50 / % ERα remaining: MCF7 cells; for % ERα remaining: remaining ERα protein at 10 μM ligand, relative to DMSO control
Protocol: ERα Degradation (MCF7 Cells)
as §1

[2] = inflection point of the inhibition of transcription in MCF7 cells, 0.1 nM estradiol, 24 hours, read-out: MCF7 IC50

Sequence of ER (endogenous, MCF7 cells) (P03372 whole entry): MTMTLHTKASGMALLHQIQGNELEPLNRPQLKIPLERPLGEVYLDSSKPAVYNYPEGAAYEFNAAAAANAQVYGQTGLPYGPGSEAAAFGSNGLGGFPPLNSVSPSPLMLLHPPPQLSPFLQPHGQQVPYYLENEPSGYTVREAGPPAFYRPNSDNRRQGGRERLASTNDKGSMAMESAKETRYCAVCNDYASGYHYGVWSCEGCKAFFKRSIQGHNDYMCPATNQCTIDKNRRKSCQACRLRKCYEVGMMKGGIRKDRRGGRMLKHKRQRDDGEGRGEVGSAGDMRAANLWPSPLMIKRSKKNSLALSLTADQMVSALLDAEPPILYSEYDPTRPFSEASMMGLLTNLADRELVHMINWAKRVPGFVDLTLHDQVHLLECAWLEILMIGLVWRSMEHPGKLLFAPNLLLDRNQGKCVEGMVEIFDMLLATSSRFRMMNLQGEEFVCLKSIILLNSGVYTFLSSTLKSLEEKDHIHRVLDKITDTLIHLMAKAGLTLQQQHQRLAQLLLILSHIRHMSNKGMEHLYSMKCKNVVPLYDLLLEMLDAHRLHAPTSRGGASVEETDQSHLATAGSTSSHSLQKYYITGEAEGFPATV
Sequence of ERα (P03372 whole entry): as above

Row | Compound | IC50 ([1]; antagonist activity, comparison of linker length between phenyl and -C(O)OH, read-out: SERD IC50 MCF7) [µM] | ER Percentage remaining (ERα; degradation potential, comparison of linker length between phenyl and -C(O)OH) [Percentage] | IC50 [1, 2] [µM] | IC50 (ERα) [µM] | % ERα remaining (ERα) [%]
1 | O=C(O)CCCc1ccc(Oc2c(-c3ccc(O)cc3)sc3cc(O)ccc23)cc1 [reference compound] | 10 | 55 |  |  | 
2 | CNC(=O)/C=C/c1ccc(Oc2c(-c3ccc(O)c(F)c3)sc3cc(O)ccc23)cc1 [Example 69, (E)-3-(4-((2-(3-fluoro-4-hydroxyphenyl)-6-hydroxybenzo[b]thiophen-3-yl)oxy)phenyl)-N-methylacrylamide] |  |  | 0.185 | 0.024 | 26
3 | COC(=O)/C=C/c1ccc(Oc2c(-c3ccccc3C(C)C)sc3cc(O)ccc23)cc1 [Example 45, (E)-methyl 3-(4-((6-hydroxy-2-(2-isopropylphenyl)benzo[b]thiophen-3-yl)oxy)phenyl)acrylate] |  |  | 0.023 |  | 30
4 | O=C(O)/C=C/c1ccc(Oc2c(-c3ccccc3CC(F)(F)F)sc3cc(O)ccc23)cc1 [Example 109, (E)-3-(4-((6-hydroxy-2-(2-(2,2,2-trifluoroethyl)phenyl)benzo[b]thiophen-3-yl)oxy)phenyl)acrylic acid] |  |  | 0.012 | 0.0002 | 16
5 | Cn1nnc(Cc2ccccc2-c2sc3cc(O)ccc3c2Oc2ccc(/C=C/C(=O)O)cc2)n1 [Example 96, (E)-3-(4-((6-hydroxy-2-(2-((2-methyl-2H-tetrazol-5-yl)methyl)phenyl)benzo [b]thiophen-3-yl)oxy)phenyl)acrylic acid] |  |  | 0.212 | 0.0017 | 14
6 | O=C(O)/C=C/c1ccc(Oc2c(-c3ccccc3C3CC3)sc3cc(O)ccc23)cc1 [Example 127, (E)-3-(4-((2-(2-cyclopropylphenyl)-6-hydroxybenzo[b]thiophen-3-yl)oxy)phenyl)acrylic acid] |  |  | 0.208 | 0.0042 | 16
7 | O=C(O)/C=C/c1ccc(Oc2c(-c3ccccc3C3COC3)sc3cc(O)ccc23)cc1 [Example 123, (E)-3-(4-((6-hydroxy-2-(2-(oxetan-3-yl)phenyl)benzo[b]thiophen-3-yl)oxy)phenyl)acrylic acid] |  |  | 0.083 | 0.0011 | 15
8 | CNC(=O)/C=C/c1ccc(Oc2c(-c3ccc(O)cc3)sc3cc(O)ccc23)cn1 [Example 71, (E)-3-(5-((6-hydroxy-2-(4-hydroxyphenyl)benzo[b]thiophen-3-yl)oxy)pyridin-2-yl)-N-methylacrylamide] |  |  | 0.269 |  | 41
9 | [C-]#[N+]c1ccccc1-c1sc2cc(O)ccc2c1Oc1ccc(/C=C/C(=O)O)cc1 [Example 24, (E)-3-(4-((6-hydroxy-2-(2-isocyanophenyl)-benzo[b]thiophen-3-yl)oxy)phenyl)acrylic acid] |  |  | 2.58 | 0.033 | 22
10 | CCOC(=O)/C=C/c1ccc(Oc2c(-c3ccc(O)cc3)sc3cc(O)ccc23)cc1OC [Example 43, (E)-ethyl 3-(4-((6-hydroxy-2-(4-hydroxyphenyl)benzo[b]thiophen-3-yl)oxy)-2-methoxyphenyl)acrylate] |  |  | 10 |  | 41
11 | CC(C)c1ccccc1-c1sc2cc(O)ccc2c1Oc1ccc(/C=C/C(=O)OCCN2CCOCC2)cc1 [Example 138, (E)-2-morpholinoethyl 3-(4-((6-hydroxy-2-(2-isopropylphenyl)benzo [b]thiophen-3-yl)oxy)phenyl)acrylate] |  |  | 0.0058 |  | 24
12 | CC(=O)/C=C/c1ccc(Oc2c(-c3ccc(F)cc3C(F)(F)F)sc3cc(O)ccc23)cc1 [Example 120, (E)-4-(4-((2-(4-fluoro-2-(trifluoromethyl)phenyl)-6-hydroxybenzo[b]thiophen-3-yl)oxy)phenyl)but-3-en-2-one] |  |  | 0.0051 |  | 70
13 | CC(C)c1cccc(-c2sc3cc(O)ccc3c2Oc2ccc(/C=C/C(=O)O)cc2)c1 [Example 98, (E)-3-(4-((6-hydroxy-2-(3-isopropylphenyl)benzo[b]thiophen-3-yl)oxy)phenyl)acrylic acid] |  |  | 0.382 | 0.0066 | 19
14 | O=C(O)/C=C/c1ccc(Oc2c(-c3ccccc3C(F)F)sc3cc(O)ccc23)cc1 [Example 79, (E)-3-(4-((2-(2-(difluoromethyl)phenyl)-6-hydroxybenzo [b]thiophen-3-yl)oxy)phenyl)acrylic acid] |  |  | 0.052 | 0.0042 | 17
15 | CC/C(=C\c1ccc(Oc2c(-c3ccccc3C(C)C)sc3cc(O)ccc23)cc1)C(=O)O [Example 113, (E)-2-(4-((6-hydroxy-2-(2-isopropylphenyl)benzo [b]thiophen-3-yl)oxy)benzylidene) butanoic acid] |  |  | 0.062 | 0.0022 | 24
16 | CCCc1nnc(/C=C/c2ccc(Oc3c(-c4ccccc4C(C)C)sc4cc(O)ccc34)cc2)o1 [Example 103, (E)-2-(2-isopropylphenyl)-3-(4-(2-(5-propyl-1,3,4-oxadiazol-2-yl)vinyl)phenoxy)benzo [b]thiophen-6-ol] |  |  | 0.012 | 0.0033 | 31
17 | CC(C)c1ccccc1-c1sc2cc(OCN3C(=O)c4ccccc4S3(=O)=O)ccc2c1Oc1ccc(/C=C/C(=O)O)cc1 [Example 84, (E)-3-(4-((6-((1,1-dioxido-3-oxobenzo [d]isothiazol-2(3H)-yl)methoxy)-2-(2-isopropylphenyl)benzo[b]thiophen-3-yl)oxy)phenyl)acrylic acid] |  |  | 0.044 |  | 12
18 | CCC(=O)Oc1ccc2c(Oc3ccc(/C=C/C(=O)O)cc3)c(-c3ccccc3C(C)C)sc2c1 [Example 136, (E)-3-(4-((2-(2-isopropylphenyl)-6-(propionyloxy)benzo[b]thiophen-3-yl)oxy)phenyl)acrylic acid] |  |  | 0.0051 |  | 11
19 | Oc1ccc(-c2sc3cc(O)ccc3c2Oc2ccc(/C=C/c3c[nH]cn3)cc2)cc1 [Example 72, (E)-3-(4-(2-(1H-imidazol-4-yl)vinyl)phenoxy)-2-(4-hydroxyphenyl)benzo[b]thiophen-6-ol] |  |  | 0.053 | 0.011 | 39
20 | O=C(O)/C=C/c1ccc(Oc2c(-c3ccccc3C3CCCC3)sc3cc(O)ccc23)cc1 [Example 87, (E)-3-(4-((2-(2-cyclopentylphenyl)-6-hydroxybenzo[b]thiophen-3-yl)oxy)phenyl)acrylic acid] |  |  | 0.014 | 0.0004 | 15
21 | CC(C)c1ccccc1-c1sc2cc(O)ccc2c1Nc1ccc(/C=C/C(=O)O)cc1 [Example 118, (E)-3-(4-((6-hydroxy-2-(2-isopropylphenyl)benzo [b]thiophen-3-yl)amino)phenyl)acrylic acid] |  |  | 0.068 | 0.0028 | 14
22 | Cc1ncccc1-c1sc2cc(O)ccc2c1Oc1ccc(/C=C/C(=O)O)cc1 [Example 100, (E)-3-(4-((6-hydroxy-2-(2-methylpyridin-3-yl)benzo[b]thiophen-3-yl)oxy)phenyl)acrylic acid] |  |  | 0.669 | 0.0054 | 12
23 | Cn1cnc(/C=C/c2ccc(Oc3c(-c4ccc(O)cc4)sc4cc(O)ccc34)cc2)c1 [Example 73, (E)-2-(4-hydroxyphenyl)-3-(4-(2-(1-methyl-1H-imidazol-4-yl)vinyl)phenoxy)benzo[b]thiophen-6-ol] |  |  | 0.125 | 0.017 | 47

— US10058534B2, “Benzothiophene derivatives and compositions thereof as selective estrogen receptor degraders” (NOVARTIS AG, priority 2013, dated 2018)
